Assay results reported in article PMC2247270, “Inhibition of vincristine binding to plasma membrane vesicles from daunorubicin-resistant Ehrlich ascites cells by multidrug resistance modulators” (British Journal of Cancer, 1989).

Molecular target: T1, P-glycoprotein
T1 construct: plasma membrane vesicles from EHR2/DNR+ Ehrlich ascites tumour cells
Experiment: inhibition of 3H-vincristine binding to plasma membrane vesicles, rapid filtration
Assay type: biochemical

IC50: 23.2 µM
SMILES: CN1CCN(CCCN2c3ccccc3Sc3ccc(C(F)(F)F)cc32)CC1 [TFP, trifluoperazine]
